Blank lines part the entries; values can stand above or below the compound they belong to.
Assays:
[1] = tested on: human glomerulonephritis; details: clinical trial; cited from earlier work
[2] = tested on: biomarkers for myocardial infarction risk; details: clinical trials; cited from earlier work
[3] = tested on: ApoE^−/−×CD4 dnTβRII mice; details: infusion, treated for four weeks after 12 weeks plaque growth; cited from earlier work
[4] = tested on: apoE/LDL-R double knockout mice; details: oral dosing, high-fat diet from 2 months of age to 6 months; cited from earlier work
[5] = molecular target: T1, recombinant human FLAP protein (Homo sapiens, UniProt P20292); assay: FLAP binding assay, Scintillation Proximity Assay, displacement of [125I]L-691,831; details: read-out: hFLAP binding IC50
T1 construct: made in house; host or cells: Sf9 insect cells (100,000 x g membrane pellet)
T1 sequence (P20292 1-161): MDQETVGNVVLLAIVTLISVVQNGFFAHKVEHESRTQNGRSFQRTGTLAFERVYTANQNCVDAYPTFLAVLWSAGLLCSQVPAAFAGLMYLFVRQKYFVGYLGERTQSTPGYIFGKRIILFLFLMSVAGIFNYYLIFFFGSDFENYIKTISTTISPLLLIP
Experimental: Compounds are assessed for the ability to bind to FLAP in a binding assay that measures compound-specific displacement of an iodinated (^1251) FLAP inhibitor via a Scintillation Proximity Assay format (adapted from S. Charleson et al., Mol. Pharmacol., 1992, 41, 873-879).
Cell pellets produced from sf9 insect cells expressing recombinant human FLAP protein are resuspended in buffer A [15 mM Tris-HCl (pH 7.5), 2 mM MgCl2, 0.3 mM EDTA, 1 mM PMSF]. The cells are lysed with a Dounce homogenizer and the material is centrifuged at 10,000×g for 10 minutes. The supernatant is then collected and centrifuged at 100,000×g for 60 minutes. To prepare membrane protein for an assay, an aliquot of the 100,000×g pellet is resuspended in 1 ml of buffer A, Dounce homogenized, and finally subjected to polytron mixing (30 seconds). Membrane protein (25 μl, 5 μg) is mixed with WGA SPA beads (Amersham) and stirred for 1 h. To an assay plate (Perkin Elmer FlexiPlate) is added 25 μl of test compound prepared in Binding buffer [100 mM Tris (pH 7.5), 140 mM NaCl, 5% glycerol, 2 mM EDTA, 0.5 mM TCEP, 0.05% Tween 20], 25 μl of [^125I]L-691,831 (an iodinated analog of MK-591, Charleson et al. Mol. Pharmacol., 41, 873-879, 1992) and finally 50 μl of the bead/protein mixture. (final concentrations: beads, 200 μg/well; protein, 5 μg/well; [^125I] probe, 0 08 nM/well (17 nCi/well). The plates are shaken for 2 h before reading on a Microbeta plate reader. Non-specific binding is determined by the addition of 10 μM cold L-691,831 compound.

Structure (SMILES): CC(C)(C)Sc1c(CC(C)(C)C(=O)O)n(Cc2ccc(Cl)cc2)c2ccc(OCc3ccc4ccccc4n3)cc12 [MK-591]
effect on proteinuria [1]: useful for reducing proteinuria

Structure (SMILES): O=C(O)[C@@H](c1ccc(OCc2ccc3ccccc3n2)cc1)C1CCCC1 [DG-031]
effect on biomarkers for myocardial infarction risk [2]: dose-dependent suppression of biomarkers

Structure (SMILES): CC(C)c1ccc2c(c1)c(SC(C)(C)C)c(CC(C)(C)C(=O)O)n2Cc1ccc(Cl)cc1 [MK-886]
decrease in plaque area in the aortic root [3]: ~40%
decrease in plaque coverage in the aorta [4]: 56%
decrease in plaque coverage in the aortic root [4]: 43%

IC50 [5]: 15 nM
Structure (SMILES): CCCC(Cc1c(C(=O)C(C)(C)C)c2cc(OCc3nc(C)cs3)ccn2c1C(=O)c1ccc(Cl)c(Cl)c1)C(=O)O (stereo not drawn) [2-({3-[(3,4-dichlorophenyl)carbonyl]-1-(2,2-dimethylpropanoyl)-7-[(4-methyl-1,3-thiazol-2-yl)methoxy]indolizin-2-yl}methyl)pentanoic acid]

Source: patent US8618300B2, “Indolizine inhibitors of leukotriene production” (Boehringer Ingelheim International GmbH, priority 2008, dated 2013)
